Laboratory results: article PMC4490784, “Compensatory induction of MYC expression by sustained CDK9 inhibition via a BRD4-dependent mechanism” (eLife, 2015)

Legend:
Assay in all cases: KINOMEscan binding assay
LKB1 = molecular target: T1, LKB1 (Homo sapiens, UniProt Q15831); conditions: read-out: % Retention on Solid Support
T1 construct: purchased DiscoveRx KINOMEscan
Outline: (§1)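 Active site-directed competition binding measured kinase engagement within a panel of over 400 kinases. i-CDK9 was tested at two concentrations, 1 and 10 µM.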

PLK3 = molecular target: T2, PLK3 (Homo sapiens, UniProt Q9H4B4); conditions: read-out: % Retention on Solid Support
T2 construct: purchased DiscoveRx KINOMEscan
Outline: as §1

MEK1 = molecular target: T3, MEK1 (Homo sapiens, UniProt Q02750); conditions: read-out: % Retention on Solid Support
T3 construct: purchased DiscoveRx KINOMEscan
Outline: as §1

MYO3A = molecular target: T4, MYO3A (Homo sapiens, UniProt Q8NEV4); conditions: read-out: % Retention on Solid Support
T4 construct: purchased DiscoveRx KINOMEscan
T4 sequence (Q8NEV4 whole entry): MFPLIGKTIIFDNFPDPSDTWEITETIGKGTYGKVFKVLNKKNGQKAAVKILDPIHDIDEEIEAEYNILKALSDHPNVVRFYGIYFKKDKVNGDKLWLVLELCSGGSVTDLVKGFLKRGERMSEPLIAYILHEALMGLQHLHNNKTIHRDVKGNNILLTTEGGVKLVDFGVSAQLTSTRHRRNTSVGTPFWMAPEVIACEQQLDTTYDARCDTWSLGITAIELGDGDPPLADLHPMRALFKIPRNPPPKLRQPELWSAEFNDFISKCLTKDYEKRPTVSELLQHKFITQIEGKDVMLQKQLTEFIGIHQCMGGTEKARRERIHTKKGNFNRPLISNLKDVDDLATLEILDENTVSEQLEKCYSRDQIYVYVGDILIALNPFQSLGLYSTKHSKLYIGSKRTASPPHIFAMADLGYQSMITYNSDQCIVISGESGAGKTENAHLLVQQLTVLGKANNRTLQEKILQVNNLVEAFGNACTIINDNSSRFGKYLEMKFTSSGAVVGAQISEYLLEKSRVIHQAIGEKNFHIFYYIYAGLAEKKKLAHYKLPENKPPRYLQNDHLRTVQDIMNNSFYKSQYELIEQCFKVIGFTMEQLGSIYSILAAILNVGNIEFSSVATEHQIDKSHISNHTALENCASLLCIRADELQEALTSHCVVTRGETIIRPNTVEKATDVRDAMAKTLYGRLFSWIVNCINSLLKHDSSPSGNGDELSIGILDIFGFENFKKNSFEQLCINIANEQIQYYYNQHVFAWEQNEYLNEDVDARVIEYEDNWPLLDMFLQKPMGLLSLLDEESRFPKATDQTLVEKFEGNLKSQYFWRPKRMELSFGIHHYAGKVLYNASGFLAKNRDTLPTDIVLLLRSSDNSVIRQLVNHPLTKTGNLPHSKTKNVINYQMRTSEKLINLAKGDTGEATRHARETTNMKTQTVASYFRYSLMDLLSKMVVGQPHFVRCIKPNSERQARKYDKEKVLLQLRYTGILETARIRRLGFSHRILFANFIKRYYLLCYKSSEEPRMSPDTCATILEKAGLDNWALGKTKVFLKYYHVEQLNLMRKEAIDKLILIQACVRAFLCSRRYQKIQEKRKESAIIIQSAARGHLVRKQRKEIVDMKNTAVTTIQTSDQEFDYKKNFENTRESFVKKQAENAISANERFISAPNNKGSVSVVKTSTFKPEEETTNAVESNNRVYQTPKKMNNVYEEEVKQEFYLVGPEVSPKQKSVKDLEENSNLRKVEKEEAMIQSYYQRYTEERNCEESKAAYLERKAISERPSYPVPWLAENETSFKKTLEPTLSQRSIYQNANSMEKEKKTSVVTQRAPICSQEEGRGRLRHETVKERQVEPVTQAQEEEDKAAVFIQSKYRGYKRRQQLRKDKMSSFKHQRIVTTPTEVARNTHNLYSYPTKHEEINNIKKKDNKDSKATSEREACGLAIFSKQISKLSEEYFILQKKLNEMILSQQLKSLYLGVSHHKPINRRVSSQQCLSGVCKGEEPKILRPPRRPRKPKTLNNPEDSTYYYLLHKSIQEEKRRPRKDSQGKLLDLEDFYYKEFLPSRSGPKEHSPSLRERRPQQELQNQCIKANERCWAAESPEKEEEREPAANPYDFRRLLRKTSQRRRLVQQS
Outline: as §1

SgK110 = molecular target: T5, SgK110 (Homo sapiens, UniProt P0C264); conditions: read-out: % Retention on Solid Support
T5 construct: purchased DiscoveRx KINOMEscan
Outline: as §1

CAMK2B = molecular target: T6, CAMK2B (Homo sapiens, UniProt Q13554); conditions: read-out: % Retention on Solid Support
T6 construct: purchased DiscoveRx KINOMEscan
Outline: as §1

ERK3 = molecular target: T7, ERK3 (Homo sapiens, UniProt Q16659); conditions: read-out: % Retention on Solid Support
T7 construct: purchased DiscoveRx KINOMEscan
Outline: as §1

SBK1 = molecular target: T8, SBK1 (Homo sapiens, UniProt Q52WX2); conditions: read-out: % Retention on Solid Support
T8 construct: purchased DiscoveRx KINOMEscan
Outline: as §1

BRK = molecular target: T9, BRK (Homo sapiens, UniProt Q13882); conditions: read-out: % Retention on Solid Support
T9 construct: purchased DiscoveRx KINOMEscan
Outline: as §1

BRAF = molecular target: T10, BRAF (Homo sapiens, UniProt P15056); conditions: read-out: % Retention on Solid Support
T10 construct: purchased DiscoveRx KINOMEscan
Outline: as §1

FGFR4 = molecular target: T11, FGFR4 (Homo sapiens, UniProt P22455); conditions: read-out: % Retention on Solid Support
T11 construct: purchased DiscoveRx KINOMEscan
T11 sequence (P22455 22-802): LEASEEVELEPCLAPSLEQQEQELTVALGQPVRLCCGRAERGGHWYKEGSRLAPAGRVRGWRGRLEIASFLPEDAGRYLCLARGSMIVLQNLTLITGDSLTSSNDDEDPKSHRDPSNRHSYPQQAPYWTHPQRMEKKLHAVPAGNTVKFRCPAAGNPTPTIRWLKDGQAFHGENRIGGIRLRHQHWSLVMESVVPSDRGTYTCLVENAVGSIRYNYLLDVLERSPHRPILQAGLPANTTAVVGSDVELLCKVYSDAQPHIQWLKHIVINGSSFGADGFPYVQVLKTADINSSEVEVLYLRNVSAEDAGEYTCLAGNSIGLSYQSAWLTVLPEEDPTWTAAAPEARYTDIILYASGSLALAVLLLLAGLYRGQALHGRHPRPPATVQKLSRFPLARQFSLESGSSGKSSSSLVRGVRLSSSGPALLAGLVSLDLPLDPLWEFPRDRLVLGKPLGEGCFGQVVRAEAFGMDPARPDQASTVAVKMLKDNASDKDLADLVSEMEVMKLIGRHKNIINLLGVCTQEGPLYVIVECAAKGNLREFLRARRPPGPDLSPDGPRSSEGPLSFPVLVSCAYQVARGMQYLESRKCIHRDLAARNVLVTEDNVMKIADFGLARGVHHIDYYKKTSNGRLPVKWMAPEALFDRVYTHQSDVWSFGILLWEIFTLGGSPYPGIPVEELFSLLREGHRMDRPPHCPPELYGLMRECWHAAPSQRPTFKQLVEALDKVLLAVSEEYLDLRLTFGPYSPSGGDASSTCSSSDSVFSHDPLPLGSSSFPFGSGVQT
Outline: as §1

[1] = molecular target: T12, RSK1(Kin.Dom.2-C-terminal) (Homo sapiens, UniProt Q15418); conditions: read-out: % Retention on Solid Support
T12 construct: RSK1(Kin.Dom.2-C-terminal); purchased DiscoveRx KINOMEscan
T12 sequence (Q15418 392-735 limits assumed): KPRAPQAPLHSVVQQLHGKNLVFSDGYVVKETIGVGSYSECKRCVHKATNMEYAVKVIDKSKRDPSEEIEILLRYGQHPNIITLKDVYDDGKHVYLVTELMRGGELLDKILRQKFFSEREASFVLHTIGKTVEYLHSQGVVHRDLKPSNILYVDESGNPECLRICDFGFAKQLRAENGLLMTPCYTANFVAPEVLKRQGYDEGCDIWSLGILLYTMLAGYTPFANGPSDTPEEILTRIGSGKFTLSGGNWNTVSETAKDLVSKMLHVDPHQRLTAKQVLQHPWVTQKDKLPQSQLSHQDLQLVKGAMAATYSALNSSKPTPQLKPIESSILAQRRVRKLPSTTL
Outline: as §1

CDC2L5 = molecular target: T13, CDC2L5 (Homo sapiens, UniProt Q14004); conditions: 1 µM i-CDK9
T13 construct: purchased DiscoveRx KINOMEscan
Outline: as §1

CDC2L2 = molecular target: T14, CDC2L2 (Homo sapiens, UniProt Q9UQ88); conditions: read-out: % Retention on Solid Support
T14 construct: purchased DiscoveRx KINOMEscan
Outline: as §1

LATS1 = molecular target: T15, LATS1 (Homo sapiens, UniProt O95835); conditions: read-out: % Retention on Solid Support
T15 construct: purchased DiscoveRx KINOMEscan
Outline: as §1

FLT3(ITD) = tested on: FLT3(ITD)
Outline: as §1

EGFR(L747-T751del,Sins) = tested on: EGFR(L747-T751del,Sins)
Outline: as §1

FER = molecular target: T16, FER (Homo sapiens, UniProt P16591); conditions: read-out: % Retention on Solid Support
T16 construct: purchased DiscoveRx KINOMEscan
T16 sequence (P16591 whole entry): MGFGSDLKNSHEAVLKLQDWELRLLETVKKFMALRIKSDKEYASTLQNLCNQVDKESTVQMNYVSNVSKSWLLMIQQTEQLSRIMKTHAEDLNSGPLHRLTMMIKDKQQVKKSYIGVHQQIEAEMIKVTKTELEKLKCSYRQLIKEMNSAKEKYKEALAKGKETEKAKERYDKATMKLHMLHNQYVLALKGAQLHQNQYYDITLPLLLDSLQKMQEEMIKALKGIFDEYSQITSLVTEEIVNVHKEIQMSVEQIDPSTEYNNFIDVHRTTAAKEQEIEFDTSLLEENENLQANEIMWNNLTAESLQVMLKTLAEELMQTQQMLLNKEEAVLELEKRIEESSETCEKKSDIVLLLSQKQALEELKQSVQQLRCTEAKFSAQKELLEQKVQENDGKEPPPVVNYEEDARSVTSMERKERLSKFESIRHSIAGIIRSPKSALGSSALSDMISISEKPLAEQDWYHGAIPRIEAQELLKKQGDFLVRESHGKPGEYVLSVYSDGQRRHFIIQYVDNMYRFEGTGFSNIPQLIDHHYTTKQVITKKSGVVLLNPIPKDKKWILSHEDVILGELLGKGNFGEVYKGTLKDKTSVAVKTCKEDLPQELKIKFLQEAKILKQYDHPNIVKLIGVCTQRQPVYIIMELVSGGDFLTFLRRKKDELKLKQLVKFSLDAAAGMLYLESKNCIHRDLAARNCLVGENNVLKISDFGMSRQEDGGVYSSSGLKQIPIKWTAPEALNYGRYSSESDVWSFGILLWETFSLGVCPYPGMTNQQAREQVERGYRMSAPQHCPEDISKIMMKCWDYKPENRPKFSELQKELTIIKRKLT
Outline: as §1

MET = molecular target: T17, MET (Homo sapiens, UniProt P08581)
T17 construct: purchased DiscoveRx KINOMEscan
Outline: as §1

RIPK4 = molecular target: T18, RIPK4 (Homo sapiens, UniProt P57078); conditions: read-out: % Retention on Solid Support
T18 construct: purchased DiscoveRx KINOMEscan
Outline: as §1

MEK4 = molecular target: T19, MEK4 (Homo sapiens, UniProt P45985); conditions: read-out: % Retention on Solid Support
T19 construct: purchased DiscoveRx KINOMEscan
T19 sequence (P45985 whole entry): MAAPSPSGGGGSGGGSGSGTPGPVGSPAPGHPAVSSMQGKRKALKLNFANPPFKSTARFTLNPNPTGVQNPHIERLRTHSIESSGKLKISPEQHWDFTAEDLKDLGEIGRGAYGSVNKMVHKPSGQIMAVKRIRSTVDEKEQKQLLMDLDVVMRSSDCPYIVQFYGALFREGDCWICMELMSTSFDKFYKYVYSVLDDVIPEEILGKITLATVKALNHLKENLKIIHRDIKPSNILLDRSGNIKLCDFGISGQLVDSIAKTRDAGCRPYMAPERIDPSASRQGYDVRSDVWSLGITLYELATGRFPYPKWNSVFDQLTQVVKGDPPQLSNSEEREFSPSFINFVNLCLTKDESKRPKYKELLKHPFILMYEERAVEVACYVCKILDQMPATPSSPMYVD
Outline: as §1

PDGFRB = molecular target: T20, PDGFRB (Homo sapiens, UniProt P09619); conditions: read-out: % Retention on Solid Support
T20 construct: purchased DiscoveRx KINOMEscan
Outline: as §1

MLK1 = molecular target: T21, MLK1 (Homo sapiens, UniProt P80192); conditions: read-out: % Retention on Solid Support
T21 construct: purchased DiscoveRx KINOMEscan
T21 sequence (P80192 whole entry): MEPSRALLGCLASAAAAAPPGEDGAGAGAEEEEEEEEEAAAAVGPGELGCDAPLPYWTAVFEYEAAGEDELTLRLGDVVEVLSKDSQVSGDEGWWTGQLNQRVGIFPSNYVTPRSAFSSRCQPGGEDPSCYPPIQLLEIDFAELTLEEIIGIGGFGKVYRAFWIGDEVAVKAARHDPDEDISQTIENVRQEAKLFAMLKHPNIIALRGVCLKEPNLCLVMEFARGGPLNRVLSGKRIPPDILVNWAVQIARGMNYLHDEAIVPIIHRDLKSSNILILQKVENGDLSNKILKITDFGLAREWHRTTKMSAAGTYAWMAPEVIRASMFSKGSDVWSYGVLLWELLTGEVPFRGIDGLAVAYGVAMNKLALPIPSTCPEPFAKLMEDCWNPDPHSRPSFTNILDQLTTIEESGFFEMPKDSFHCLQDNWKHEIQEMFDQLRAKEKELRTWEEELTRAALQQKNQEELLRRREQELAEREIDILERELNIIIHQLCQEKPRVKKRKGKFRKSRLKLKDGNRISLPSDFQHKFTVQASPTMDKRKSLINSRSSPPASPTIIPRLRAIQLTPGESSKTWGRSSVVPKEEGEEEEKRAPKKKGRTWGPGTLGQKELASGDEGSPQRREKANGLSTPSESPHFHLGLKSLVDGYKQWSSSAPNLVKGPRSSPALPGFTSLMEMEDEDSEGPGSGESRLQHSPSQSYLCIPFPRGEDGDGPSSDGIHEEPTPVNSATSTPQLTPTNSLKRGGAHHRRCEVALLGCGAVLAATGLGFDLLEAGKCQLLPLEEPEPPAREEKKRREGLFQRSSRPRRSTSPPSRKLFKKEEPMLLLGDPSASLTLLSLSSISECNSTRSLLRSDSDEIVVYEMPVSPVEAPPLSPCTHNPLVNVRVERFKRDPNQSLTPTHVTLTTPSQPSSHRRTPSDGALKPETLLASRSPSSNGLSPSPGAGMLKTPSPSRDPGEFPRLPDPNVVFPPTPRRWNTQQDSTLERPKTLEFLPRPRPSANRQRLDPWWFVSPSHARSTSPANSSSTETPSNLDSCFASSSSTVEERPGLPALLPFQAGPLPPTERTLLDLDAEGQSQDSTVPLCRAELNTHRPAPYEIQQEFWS
Outline: as §1

MET(M1250T) = molecular target: T22, MET(M1250T) (Homo sapiens, UniProt P08581, M1250T)
T22 construct: purchased DiscoveRx KINOMEscan
Outline: as §1

PIK3CA(I800L) = molecular target: T23, PIK3CA(I800L) (Homo sapiens, UniProt P42336, I800L); conditions: 1 µM i-CDK9; read-out: % Retention on Solid Support
T23 construct: purchased DiscoveRx KINOMEscan
Outline: as §1

CDK8 = molecular target: T24, CDK8 (Homo sapiens, UniProt P49336)
T24 construct: purchased DiscoveRx KINOMEscan
Outline: as §1

ARK5 = molecular target: T25, ARK5 (Homo sapiens, UniProt O60285)
T25 construct: purchased DiscoveRx KINOMEscan
Outline: as §1

ACVR2A = molecular target: T26, ACVR2A (Homo sapiens, UniProt P27037); conditions: read-out: % Retention on Solid Support
T26 construct: purchased DiscoveRx KINOMEscan
Outline: as §1

SNARK = molecular target: T27, SNARK (Homo sapiens, UniProt Q9H093)
T27 construct: purchased DiscoveRx KINOMEscan
Outline: as §1

PAK3 = molecular target: T28, PAK3 (Homo sapiens, UniProt O75914); conditions: read-out: % Retention on Solid Support
T28 construct: purchased DiscoveRx KINOMEscan
Outline: as §1

**Q.** With `N[C@H]1CC[C@H](Nc2cc(-c3cccc(NCc4cccc(F)c4)n3)c(Cl)cn2)CC1` [i-CDK9, N2′-(trans-4-aminocyclohexyl)-5′-chloro-N6-(3-fluorobenzyl)-2,4′-bipyridine-2′,6-diamine] as the molecule, how does the remaining binding at 1 µM (LKB1; 1 µM i-CDK9) read?
**A.** 93%

**Q.** And the remaining binding at 10 µM (LKB1; 10 µM i-CDK9)?
**A.** 96%

**Q.** And the remaining binding at 1 µM (PLK3; 1 µM i-CDK9)?
**A.** 96%

**Q.** What about the remaining binding at 10 µM (PLK3; 10 µM i-CDK9) of the same molecule?
**A.** 89%

**Q.** What about the remaining binding at 1 µM (MEK1; 1 µM i-CDK9) of the same molecule?
**A.** 100%

**Q.** And the remaining binding at 10 µM (MEK1; 10 µM i-CDK9)?
**A.** 100%

**Q.** And the remaining binding at 1 µM (MYO3A; 1 µM i-CDK9)?
**A.** 91%

**Q.** And the remaining binding at 10 µM (MYO3A; 10 µM i-CDK9)?
**A.** 96%

**Q.** What about the remaining binding at 1 µM (SgK110; 1 µM i-CDK9) of the same molecule?
**A.** 72%

**Q.** What about the remaining binding at 10 µM (SgK110; 10 µM i-CDK9) of the same molecule?
**A.** 100%

**Q.** And the remaining binding at 1 µM (CAMK2B; 1 µM i-CDK9)?
**A.** 100%

**Q.** And the remaining binding at 10 µM (CAMK2B; 10 µM i-CDK9)?
**A.** 81%

**Q.** What about the remaining binding at 1 µM (ERK3; 1 µM i-CDK9) of the same molecule?
**A.** 94%

**Q.** And the remaining binding at 10 µM (ERK3; 10 µM i-CDK9)?
**A.** 94%

**Q.** What about the remaining binding at 1 µM (SBK1; 1 µM i-CDK9) of the same molecule?
**A.** 100%

**Q.** And the remaining binding at 10 µM (SBK1; 10 µM i-CDK9)?
**A.** 100%

**Q.** And the remaining binding at 1 µM (BRK; 1 µM i-CDK9)?
**A.** 70%

**Q.** And the remaining binding at 10 µM (BRK; 10 µM i-CDK9)?
**A.** 100%

**Q.** What about the remaining binding at 1 µM (BRAF; 1 µM i-CDK9) of the same molecule?
**A.** 100%

**Q.** And the remaining binding at 10 µM (BRAF; 10 µM i-CDK9)?
**A.** 70%

**Q.** What about the remaining binding at 1 µM (FGFR4; 1 µM i-CDK9) of the same molecule?
**A.** 98%

**Q.** And the remaining binding at 10 µM (FGFR4; 10 µM i-CDK9)?
**A.** 100%

**Q.** And the remaining binding at 1 µM ([1]; 1 µM i-CDK9)?
**A.** 93%

**Q.** What about the remaining binding at 10 µM ([1]; 10 µM i-CDK9) of the same molecule?
**A.** 84%

**Q.** And the “% Retention on Solid Support” value (CDC2L5)?
**A.** 100%

**Q.** And the remaining binding at 1 µM (CDC2L2; 1 µM i-CDK9)?
**A.** 100%

**Q.** What about the remaining binding at 10 µM (CDC2L2; 10 µM i-CDK9) of the same molecule?
**A.** 33%

**Q.** What about the remaining binding at 1 µM (LATS1; 1 µM i-CDK9) of the same molecule?
**A.** 100%

**Q.** And the remaining binding at 10 µM (LATS1; 10 µM i-CDK9)?
**A.** 100%

**Q.** And the “% Retention on Solid Support” value (FLT3(ITD); 1 µM i-CDK9)?
**A.** 100%

**Q.** What about the “% Retention on Solid Support” value (FLT3(ITD); 10 µM i-CDK9) of the same molecule?
**A.** 72%

**Q.** What about the “% Retention on Solid Support” value (EGFR(L747-T751del,Sins); 1 µM i-CDK9) of the same molecule?
**A.** 82%

**Q.** What about the “% Retention on Solid Support” value (EGFR(L747-T751del,Sins); 10 µM i-CDK9) of the same molecule?
**A.** 61%

**Q.** What about the remaining binding at 1 µM (FER; 1 µM i-CDK9) of the same molecule?
**A.** 56%

**Q.** And the remaining binding at 10 µM (FER; 10 µM i-CDK9)?
**A.** 100%

**Q.** What about the “% Retention on Solid Support” value (MET; 1 µM i-CDK9) of the same molecule?
**A.** 94%

**Q.** And the “% Retention on Solid Support” value (MET; 10 µM i-CDK9)?
**A.** 96%

**Q.** And the remaining binding at 1 µM (RIPK4; 1 µM i-CDK9)?
**A.** 53%

**Q.** What about the remaining binding at 10 µM (RIPK4; 10 µM i-CDK9) of the same molecule?
**A.** 100%

**Q.** And the remaining binding at 1 µM (MEK4; 1 µM i-CDK9)?
**A.** 39%

**Q.** What about the remaining binding at 10 µM (MEK4; 10 µM i-CDK9) of the same molecule?
**A.** 97%

**Q.** And the remaining binding at 1 µM (PDGFRB; 1 µM i-CDK9)?
**A.** 74%

**Q.** And the remaining binding at 10 µM (PDGFRB; 10 µM i-CDK9)?
**A.** 100%

**Q.** What about the remaining binding at 1 µM (MLK1; 1 µM i-CDK9) of the same molecule?
**A.** 100%

**Q.** And the remaining binding at 10 µM (MLK1; 10 µM i-CDK9)?
**A.** 100%

**Q.** And the “% Retention on Solid Support” value (MET(M1250T); 1 µM i-CDK9)?
**A.** 86%

**Q.** What about the “% Retention on Solid Support” value (MET(M1250T); 10 µM i-CDK9) of the same molecule?
**A.** 100%

**Q.** What about the remaining binding at 1 µM (PIK3CA(I800L)) of the same molecule?
**A.** 100%

**Q.** And the “% Retention on Solid Support” value (CDK8; 1 µM i-CDK9)?
**A.** 44%

**Q.** What about the “% Retention on Solid Support” value (CDK8; 10 µM i-CDK9) of the same molecule?
**A.** 100%

**Q.** What about the “% Retention on Solid Support” value (ARK5; 1 µM i-CDK9) of the same molecule?
**A.** 72%

**Q.** What about the “% Retention on Solid Support” value (ARK5; 10 µM i-CDK9) of the same molecule?
**A.** 100%

**Q.** And the remaining binding at 1 µM (ACVR2A; 1 µM i-CDK9)?
**A.** 98%

**Q.** And the remaining binding at 10 µM (ACVR2A; 10 µM i-CDK9)?
**A.** 91%

**Q.** What about the “% Retention on Solid Support” value (SNARK; 1 µM i-CDK9) of the same molecule?
**A.** 100%

**Q.** And the “% Retention on Solid Support” value (SNARK; 10 µM i-CDK9)?
**A.** 87%

**Q.** What about the remaining binding at 1 µM (PAK3; 1 µM i-CDK9) of the same molecule?
**A.** 100%

**Q.** What about the remaining binding at 10 µM (PAK3; 10 µM i-CDK9) of the same molecule?
**A.** 98%
